In article PMC10119279 (Scientific Reports, 2023):
Like-named read-outs stand apart in the source and are kept apart here.

What was measured:
[1] = molecular target: T1, CN1 enzyme (Homo sapiens, UniProt Q96KN2); assay: In vitro degradation of carnosine, anserine and balenine added to human heparin plasma; type: in vitro ADME; conditions: for Time after which undetectable in plasma: 20 µM added to heparin plasma; for Time after which undetectable in plasma / Half-life in plasma / half-life at 20 µM: 37 °C; for Half-life in plasma / half-life at 20 µM: 20 µM added to human heparin plasma, 6 subjects; for half-life at 20 µM: both sexes, human, heparin plasma, read-out: Half-life in plasma
T1 construct: Fasted venous heparin plasma was collected from 6 subjects (5 males and 1 female) with a wide range in CN1 enzyme activity; from tissue; host or cells: human venous heparin plasma from 6 volunteers
T1 sequence (Q96KN2 26-507): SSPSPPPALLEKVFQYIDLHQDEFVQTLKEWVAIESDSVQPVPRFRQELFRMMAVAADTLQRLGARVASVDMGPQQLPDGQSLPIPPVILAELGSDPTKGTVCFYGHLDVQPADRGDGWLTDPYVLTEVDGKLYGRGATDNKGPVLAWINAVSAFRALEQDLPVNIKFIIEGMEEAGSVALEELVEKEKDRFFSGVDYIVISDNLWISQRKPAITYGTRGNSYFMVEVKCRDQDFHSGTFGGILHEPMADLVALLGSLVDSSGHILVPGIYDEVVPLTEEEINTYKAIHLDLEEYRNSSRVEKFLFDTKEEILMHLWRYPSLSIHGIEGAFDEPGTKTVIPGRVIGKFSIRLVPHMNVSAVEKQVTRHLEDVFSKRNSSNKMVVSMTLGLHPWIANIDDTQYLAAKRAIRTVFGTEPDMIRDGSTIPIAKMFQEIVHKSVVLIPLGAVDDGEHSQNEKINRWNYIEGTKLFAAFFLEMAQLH
Method: Fasted venous heparin plasma was collected from 6 subjects (5 males and 1 female) with a wide range in CN1 enzyme activity (0.32–2.92 µmol/mL/h with a mean value of 1.62 µmol/mL/h). Subjects were asked to refrain from alcohol, meat and fish the day before the sampling. […] On different time points (Table 1), plasma was deproteinized with 1:11 sulfosalicylic acid (SSA, 35% solution) to inhibit further hydrolysis. Samples were centrifuged for 5 min at 16,000 g and supernatant was stored at − 20 °C until further UHPLC-MS/MS analysis.
Extraction of plasma and urine for UHPLC-MS/MS analysis went as follows: 150 µL of deproteinized plasma/urine (not deproteinized) was added to 215 µL of acetonitrile containing 1% formic acid, 10 µL of internal standard (IS) (carnosine-D4) and 25 µL ultrapure water or standard (calibration curve and quality control samples (QC)). Then samples were vortexed and centrifuged (15 min, 4 °C, 15,000 g). Supernatant was used for further analyses.
In the in vitro study, supernatant was diluted 40 times before injection. In the PK study, plasma samples from the 10 mg/kg condition and baseline urine samples were diluted 100 times. All other urine samples were diluted 1000 times. Dilutions were conducted with acetonitrile containing 1% formic acid.
Analyses were performed on a UHPLC-MS/MS platform consisting of an Acquity H-Class Quaternary Solvent Manager and Flow-Through-Needle Sample Manager with temperature controlled tray (8 °C) and column oven (60 °C). Chromatographic separation was achieved on an Acquity UPLC BEH amide column (2.1 mm × 100 mm, 1.7 µm) with an Acquity amide Vanguard pre-column. The system operated at a flow rate of 0.3 mL/min with solvent A (ultrapure water), solvent B (acetonitrile) and solvent C (200 mM ammonium formate with 0.04% ammonia) with the gradient shown in Table 2. The UPLC column effluent was interfaced to a Xevo TQ-XS® MS/MS system (plasma samples) and Xevo TQ-S® (urine samples), equipped with an electrospray ionization (ESI) probe operating in positive ion mode. Further MS settings included desolvation gas flow rate (15 L/h), desolvation temperature (600 °C), cone gas flow rate (800 L/h), source temperature (150 °C) and capillary voltage (0.75 kV). Transition details are depicted in Table 3. […] The detector operated in multiple reacting monitoring mode, scanning the two most intense transitions of the HCDs. Masslynx software 4.2 was used for instrument control and data extraction. Hardware and software were purchased from Waters (Milford, MA, USA).
CN1 activity was quantified by fluorometric determination of histidine following carnosine addition (based on Teufel et al., 2003). The reaction was initiated by adding carnosine to the serum (final concentration of 3.33 mM carnosine) and stopped after 10 min incubation at 37 °C by adding trichloroacetic acid (final concentration of 150 mM TCA). For controls, trichloroacetic acid was added before carnosine. After centrifugation (15 min, 16000 g), 10 µl supernatant was added to 190 µl of an OPA-NaOH mixture (4000 µl incomplete ophtaldehyde, with 0.2% 2-mercaptoethanol, and 15 ml of 4 M sodium hydroxide solution) and fluorescence was determined after 40 min (excitation: 360 nm and emission: 465 nm). All chemicals were purchased from Sigma-Aldrich (Milan, Italy).
HCD concentration in the in vitro experiment was calculated relative to the starting concentration. Elimination constant (ke) and elimination half-life were calculated based on a monophasic decay profile. Incremental area under the plasma concentration time curve (iAUC) was calculated using the trapezoidal method in the PK study. A normality check was performed using Shapiro-Wilk’s test. In case of normally distributed data, a mixed-effects model and Pearson correlation was used. Skewed data were analysed with Friedman tests and Spearman rank correlations. Values are presented as mean/median ± standard deviation/inter quartile range and 95% confidence intervals (95% CI). […]

[2] = system: serum carnosinase (CN1) enzyme; conditions: cited from earlier work; for Substrate quality for the CN1 enzyme: ref 15-17
[3] = cited from earlier work
[4] = system: human peptide transporter 2 (PEPT2); parameters: method as in PMID 20067523; conditions: ref 23; cited from earlier work

| SMILES | Time after which undetectable in plasma [1] [min] | Half-life in plasma [1] [min] | half-life at 20 µM [1] [min] | Elimination constant ke: factor difference between carnosine and anserine ([1]; in vitro human heparin plasma, factor ×, not significant) | Substrate quality for the CN1 enzyme [2] | Hydrolysis rate as % of carnosine's ([2]; several in vitro experiments) | Cmax ([3]; 4 mg/kg oral, human) [nM] | Cmax ([3]; 10 mg/kg oral, human) [nM] | Plasma iAUC ([3]; 10 mg/kg oral, human) [µM·min] | Dose-dependent peak plasma concentrations after ingestion ([3]; human) [µM] | Average excreted percentage of the dose in urine (intact) ([3]; n = 7) [%] | Affinity for PEPT2 [4] | Plasma concentration change after ingestion ([3]; 60 mg/kg bodyweight, only in people with low CN1 activity) | Plasma level after ingestion ([3]; highest dose of 20 mg/kg oral, human) | Resistance to CN1 ([2]; ref 29) |
| --- | --- | --- | --- | --- | --- | --- | --- | --- | --- | --- | --- | --- | --- | --- | --- |
| Cn1cncc1C[C@H](NC(=O)CCN)C(=O)O [anserine, β-alanyl-N(π)-methyl-L-histidine, reference compound] | 15 | 2 | 2.14 ± 0.58 | 1.8 | intermediate | 30–50% | 540 | 1100 | 66.7 | 0.5 to 3.1 | 6.3 | high-affinity ligand | – | – | – |
| NCCC(=O)N[C@@H](Cc1cnc[nH]1)C(=O)O [carnosine, β-alanyl-L-histidine, reference compound] | 5 | 1 | 1.2 ± 0.36 | – | good | – | – | – | – | – | – | – | small increase | barely measurable | – |
| NCCC(=O)NC(CO)Cc1cnc[nH]1 (stereo not shown) [carnosinol, reference compound] | – | – | – | – | – | – | – | – | – | – | – | – | – | – | resistant to CN1 |
